Laboratory results taken from US9247759B2, “Identification of human T2R receptors that respond to bitter compounds that elicit the bitter taste in compositions, and the use thereof in assays to identify compounds that inhibit (block) bitter taste in compositions and use thereof” (SENOMYX, INC., priority 2007, dated 2016).
Like-named read-outs stand apart in the source and are kept apart here.

What was measured:
hT2R63 = assay: hT2R panel inhibition, transient HEK293 G16g44, agonist Caffeine 1 mM or Andrographolide 100 μM; format: cell-based, human; conditions: compound at 25 μM; for screening result against bitter receptor 63: receptor activated to EC80 with the corresponding agonist
Procedure, shortened: (§1)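 Here, inhibition reflects how much the test compound lowers activation of a transiently expressed human bitter receptor stimulated at EC80. Twenty-two such receptors were tested separately.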

hT2R14 [1] = target: T1, hT2R14 (Homo sapiens (Human), UniProt Q9NYV8); assay: hT2R panel inhibition, transient HEK293 G16g44, agonist Aristolochic Acid 2 μM; format: cell-based; conditions: HEK293, compound at 25 μM
Procedure, shortened: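 Each hT2R was transiently transfected into HEK293 cells stably expressing G16g44 and assayed functionally for inhibition of agonist response. Agonists were applied at EC80: andrographolide at 0.5 mM for hT2R8 and aristolochic acid at 2 μM for hT2R14.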

hT2R44 = assay: hT2R panel inhibition, transient HEK293 G16g44, agonist Denatonium 0.5 μM; format: cell-based, human; conditions: compound at 25 μM; for screening result against bitter receptor 44: receptor activated to EC80 with the corresponding agonist
Procedure, shortened: as §1

hT2R16 = hT2R16 (Homo sapiens (Human), UniProt Q9NYV7); assay: hT2R panel inhibition, transient HEK293 G16g44, agonist Salicin 1 mM; format: cell-based; conditions: HEK293, compound at 25 μM
Procedure, shortened: as §1

hT2R10 = hT2R10 (Homo sapiens (Human), UniProt Q9NYW0); assay: hT2R panel inhibition, transient HEK293 G16g44, agonist Strychnine 50 μM; format: cell-based
hT2R71 = hT2R71 (Homo sapiens (Human), UniProt P59536); assay: hT2R panel inhibition, transient HEK293 G16g44, agonist Picric Acid 10 μM; format: cell-based; conditions: HEK293, compound at 25 μM
Procedure, shortened: as §1

hT2R75 = hT2R75 (Homo sapiens (Human), UniProt P59540); assay: hT2R panel inhibition, transient HEK293 G16g44, agonist Strychnine 1 μM; format: cell-based
Procedure: (§2) Specifically, in order to evaluate the inhibitory selectivity of the Compound C compound, this compound was tested against 22 human T2Rs which were deorphaned by Senomyx. These receptors and the bitter ligands that activate these human T2Rs are reported in earlier patent applications which are incorporated by reference herein. These 22 human T2Rs are hT2R1, 3, 4, 5, 7, 8, 9, 10, 13, 14, 16, 44, 51, 54, 55, 61, 63, 64, 65, 67, 71 and 75. The amino acid and nucleic acid sequences of all of these T2Rs may be found in these earlier patent applications. These human T2Rs were each individually transiently transfected into HEK293 cells that stably express the promiscuous G protein G16g44 and functional assays were effected using these receptors as disclosed in these same patent applications. […] The ligands were used at EC80 concentration levels. The list of bitter ligands utilized and the tested ligand concentrations are contained in Table 5 of this example.
(§3) Relating to the foregoing, FIG. 5 contains experimental results wherein Compound C was tested with different agonist compounds. The inhibition activity is represented by the reduction of receptor activity in the presence of Compound C. […] These 13 hT2Rs are hT2R3, 7, 10, 14, 16, 44, 51, 55, 61, 63, 64, 65, and 71.

hT2R65 = assay: hT2R panel inhibition, transient HEK293 G16g44, agonist Oleuropein 1 mM; format: cell-based, human; conditions: compound at 25 μM; for screening result against bitter receptor 65: receptor activated to EC80 with the corresponding agonist
Procedure: as §2, §3

hT2R14 [2] = target: T1, hT2R14; assay: hT2R14 antagonist high-throughput FLIPR assay, stable cell line with G16g44, agonist aristolochic acid; format: cell-based; conditions: read-out: IC50 on hT2R14 bitter receptor
Procedure, shortened: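 HEK293 cells stably expressing hT2R14 with chimeric G16g44 were stimulated with aristolochic acid (3 μM), giving 70-80% of maximal receptor activity. Test compounds were added together with the agonist, and antagonism was read as fluorescent calcium signal on FLIPR.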

hT2R61 = hT2R61 (Homo sapiens (Human), UniProt P59537); assay: hT2R panel inhibition, transient HEK293 G16g44, agonist Aristolochic Acid 25 nM; format: cell-based; conditions: HEK293, compound at 25 μM
Procedure, shortened: as §1

hT2R3 = hT2R3 (Homo sapiens (Human), UniProt Q9NYW6); assay: hT2R panel inhibition, transient HEK293 G16g44, agonist Chloroquine pH6.5 50 μM; format: cell-based; conditions: HEK293, compound at 25 μM
Procedure, shortened: as §1

hT2R64 = hT2R64 (Homo sapiens (Human), UniProt P59538); assay: hT2R panel inhibition, transient HEK293 G16g44, agonist Aristolochic Acid 1 μM; format: cell-based; conditions: HEK293, compound at 25 μM
Procedure, shortened: as §1

hT2R55 = assay: hT2R panel inhibition, transient HEK293 G16g44, agonist Cinchonine 150 μM; format: cell-based, human; conditions: compound at 25 μM; for screening result against bitter receptor 55: receptor activated to EC80 with the corresponding agonist
Procedure, shortened: as §1

hT2R51 = hT2R51 (Homo sapiens (Human), UniProt P59533); assay: hT2R panel inhibition, transient HEK293 G16g44, agonist Prop 2.5 μM; format: cell-based; conditions: HEK293, compound at 25 μM; receptor activated to EC80 with the corresponding agonist; read-out: screening result against bitter receptor 51
Procedure: as §2, §3

hT2R67 = assay: hT2R panel inhibition, transient HEK293 G16g44, agonist Andrographolide 5 μM; format: cell-based, human; conditions: compound at 25 μM; receptor activated to EC80 with the corresponding agonist
Procedure: as §2, §3

hT2R54 = assay: hT2R panel inhibition, transient HEK293 G16g44, agonist Ranitidine 5 mM; format: cell-based, human; conditions: compound at 25 μM; receptor activated to EC80 with the corresponding agonist
Procedure: as §2, §3

hT2R5 = hT2R5 (Homo sapiens (Human), UniProt Q9NYW4); assay: hT2R panel inhibition, transient HEK293 G16g44, agonist Picoline 10 mM; format: cell-based; conditions: HEK293, compound at 25 μM; receptor activated to EC80 with the corresponding agonist; read-out: screening result against bitter receptor 5
Procedure, shortened: as §1

[3] = receptor activated to EC80 with agonist
[4] = HEK293, read-out: screening result against bitter receptor 75, compound at 25 μM, receptor activated to EC80 with the corresponding agonist
[5] = receptor activated to EC80 with the corresponding agonist, read-out: screening result against bitter receptor 61
[6] = receptor activated to EC80 with the corresponding agonist, read-out: screening result against bitter receptor 14
[7] = receptor activated to EC80 with the corresponding agonist, read-out: screening result against bitter receptor 16
[8] = HEK293, read-out: screening result against bitter receptor 10, compound at 25 μM, receptor activated to EC80 with the corresponding agonist
[9] = receptor activated to EC80 with the corresponding agonist, read-out: screening result against bitter receptor 71
[10] = receptor activated to EC80 with the corresponding agonist, read-out: screening result against bitter receptor 3
[11] = receptor activated to EC80 with the corresponding agonist, read-out: screening result against bitter receptor 64

T1 sequence (Q9NYV8 whole entry): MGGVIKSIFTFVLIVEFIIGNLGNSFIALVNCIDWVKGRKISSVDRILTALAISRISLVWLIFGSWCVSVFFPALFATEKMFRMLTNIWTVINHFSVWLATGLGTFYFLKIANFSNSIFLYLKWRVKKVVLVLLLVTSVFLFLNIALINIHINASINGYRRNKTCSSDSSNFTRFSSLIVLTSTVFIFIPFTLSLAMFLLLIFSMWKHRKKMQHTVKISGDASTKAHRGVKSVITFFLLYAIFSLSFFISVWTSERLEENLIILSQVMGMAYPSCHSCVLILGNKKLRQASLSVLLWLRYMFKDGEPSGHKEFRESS
hT2R16, sequence (Q9NYV7 whole entry): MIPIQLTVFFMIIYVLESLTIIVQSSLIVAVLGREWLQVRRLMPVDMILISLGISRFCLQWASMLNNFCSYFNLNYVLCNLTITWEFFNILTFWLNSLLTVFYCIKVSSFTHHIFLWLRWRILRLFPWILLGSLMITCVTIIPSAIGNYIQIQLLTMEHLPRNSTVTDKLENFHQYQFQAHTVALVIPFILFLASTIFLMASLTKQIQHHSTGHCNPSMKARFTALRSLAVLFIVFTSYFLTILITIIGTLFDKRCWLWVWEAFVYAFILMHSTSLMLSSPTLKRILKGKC
hT2R75, sequence (P59540 whole entry): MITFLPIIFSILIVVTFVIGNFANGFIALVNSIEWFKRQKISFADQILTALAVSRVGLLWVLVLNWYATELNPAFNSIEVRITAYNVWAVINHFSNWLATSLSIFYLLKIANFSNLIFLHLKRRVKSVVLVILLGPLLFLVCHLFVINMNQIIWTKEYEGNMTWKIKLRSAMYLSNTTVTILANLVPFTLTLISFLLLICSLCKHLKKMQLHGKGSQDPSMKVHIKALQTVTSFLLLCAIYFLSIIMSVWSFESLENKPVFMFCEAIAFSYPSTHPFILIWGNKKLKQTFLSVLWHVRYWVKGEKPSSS
hT2R3, sequence (Q9NYW6 whole entry): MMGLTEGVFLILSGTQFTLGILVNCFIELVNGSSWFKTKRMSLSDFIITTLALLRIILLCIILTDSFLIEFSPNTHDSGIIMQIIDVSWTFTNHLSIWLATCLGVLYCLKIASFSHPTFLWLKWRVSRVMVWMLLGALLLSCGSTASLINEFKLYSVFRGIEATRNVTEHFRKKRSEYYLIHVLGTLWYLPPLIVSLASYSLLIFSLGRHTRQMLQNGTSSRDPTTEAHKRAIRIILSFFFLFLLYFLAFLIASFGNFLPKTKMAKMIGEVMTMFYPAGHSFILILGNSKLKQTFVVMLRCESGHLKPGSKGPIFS
hT2R61, sequence (P59537 whole entry): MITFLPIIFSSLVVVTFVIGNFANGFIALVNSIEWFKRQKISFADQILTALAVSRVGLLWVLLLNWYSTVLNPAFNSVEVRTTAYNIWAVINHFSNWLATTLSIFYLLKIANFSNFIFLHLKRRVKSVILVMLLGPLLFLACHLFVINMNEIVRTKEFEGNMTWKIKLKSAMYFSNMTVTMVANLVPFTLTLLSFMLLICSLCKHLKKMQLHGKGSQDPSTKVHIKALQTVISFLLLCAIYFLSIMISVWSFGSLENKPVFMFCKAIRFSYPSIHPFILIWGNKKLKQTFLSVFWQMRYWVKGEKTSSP
hT2R64, sequence (P59538 whole entry): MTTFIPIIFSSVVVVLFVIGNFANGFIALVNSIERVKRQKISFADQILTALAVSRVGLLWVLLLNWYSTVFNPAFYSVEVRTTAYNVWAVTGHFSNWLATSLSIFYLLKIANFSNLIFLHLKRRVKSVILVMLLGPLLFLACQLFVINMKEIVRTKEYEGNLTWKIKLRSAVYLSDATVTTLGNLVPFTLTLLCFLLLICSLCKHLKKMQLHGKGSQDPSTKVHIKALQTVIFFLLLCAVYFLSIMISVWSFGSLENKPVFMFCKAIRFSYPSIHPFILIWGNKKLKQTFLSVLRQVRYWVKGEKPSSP
hT2R10, sequence (Q9NYW0 whole entry): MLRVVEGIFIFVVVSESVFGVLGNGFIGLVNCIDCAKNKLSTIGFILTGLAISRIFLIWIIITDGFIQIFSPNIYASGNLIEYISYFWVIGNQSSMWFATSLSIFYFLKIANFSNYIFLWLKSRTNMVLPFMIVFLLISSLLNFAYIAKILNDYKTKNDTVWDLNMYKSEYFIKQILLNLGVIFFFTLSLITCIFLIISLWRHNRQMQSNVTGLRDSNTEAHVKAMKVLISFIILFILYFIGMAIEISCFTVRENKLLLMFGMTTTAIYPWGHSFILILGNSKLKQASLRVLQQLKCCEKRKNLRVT
hT2R71, sequence (P59536 whole entry): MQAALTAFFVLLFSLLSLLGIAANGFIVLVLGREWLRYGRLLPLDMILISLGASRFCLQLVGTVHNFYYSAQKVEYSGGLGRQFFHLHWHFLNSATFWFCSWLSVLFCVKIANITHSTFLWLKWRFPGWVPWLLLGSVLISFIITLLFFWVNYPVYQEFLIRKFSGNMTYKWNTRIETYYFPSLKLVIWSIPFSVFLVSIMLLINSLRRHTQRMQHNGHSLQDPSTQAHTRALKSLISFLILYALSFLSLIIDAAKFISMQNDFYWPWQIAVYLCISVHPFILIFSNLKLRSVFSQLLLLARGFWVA
hT2R51, sequence (P59533 whole entry): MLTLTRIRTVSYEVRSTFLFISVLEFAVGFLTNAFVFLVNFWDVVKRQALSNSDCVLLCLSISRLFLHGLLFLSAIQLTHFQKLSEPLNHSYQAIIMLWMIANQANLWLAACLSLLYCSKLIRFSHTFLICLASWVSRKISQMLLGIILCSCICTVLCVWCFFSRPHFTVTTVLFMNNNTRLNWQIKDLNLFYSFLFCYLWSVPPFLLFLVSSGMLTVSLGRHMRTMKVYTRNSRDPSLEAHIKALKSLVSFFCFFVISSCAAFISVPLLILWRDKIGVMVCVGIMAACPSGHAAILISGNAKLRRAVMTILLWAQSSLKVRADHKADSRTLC
hT2R5, sequence (Q9NYW4 whole entry): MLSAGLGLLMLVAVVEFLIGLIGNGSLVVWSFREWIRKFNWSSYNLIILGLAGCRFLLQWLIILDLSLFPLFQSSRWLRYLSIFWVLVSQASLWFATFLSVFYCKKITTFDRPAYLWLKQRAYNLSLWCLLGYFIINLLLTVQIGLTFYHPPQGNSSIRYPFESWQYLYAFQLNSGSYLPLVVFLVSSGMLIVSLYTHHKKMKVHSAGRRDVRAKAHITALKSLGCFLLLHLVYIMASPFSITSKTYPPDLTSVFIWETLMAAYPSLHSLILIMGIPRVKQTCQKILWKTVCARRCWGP

Compound | screening result against bitter receptor 63 (hT2R63) | inhibition at 25 µM (hT2R75; [4]) | inhibition at 25 µM (hT2R61; [5]) | inhibition at 25 µM (hT2R51) | inhibition at 25 µM (hT2R14 [1]; [6]) | screening result against bitter receptor 44 (hT2R44) | inhibition at 25 µM (hT2R16; [7]) | inhibition at 25 µM (hT2R10; [8]) | inhibition at 25 µM (hT2R71; [9]) | screening result against bitter receptor 67 (hT2R67) | screening result against bitter receptor 65 (hT2R65) | screening result against bitter receptor 54 (hT2R54) | inhibition at 25 µM (hT2R5) | inhibition at 25 µM (hT2R3; [10]) | inhibition at 25 µM (hT2R64; [11]) | screening result against bitter receptor 55 (hT2R55) | other results
COc1ccc(OC)c(/C=C2\SC(=S)N(CCC(=O)O)C2=O)c1 [Example 6-1, (Z)-3-(5-(2,5-dimethoxybenzylidene)-4-oxo-2-thioxothiazolidin-3-yl)propanoic acid] |  |  |  |  |  |  |  |  |  |  |  |  |  |  |  |  | inhibition of bitter receptor 63 (hT2R63; [3]): + (20% to 40% inhibition = +); inhibition at 25 µM (hT2R14 [1]; receptor activated to EC80 with agonist, read-out: inhibition of bitter receptor 14): > 80%; inhibition of bitter receptor 44 (hT2R44; [3]): ++ (40% to 60% inhibition = ++); inhibition at 25 µM (hT2R16; receptor activated to EC80 with agonist, read-out: inhibition of bitter receptor 16): 20 to 40%; inhibition at 25 µM (hT2R10; HEK293, read-out: inhibition of bitter receptor 10, compound at 25 μM, receptor activated to EC80 with agonist): > 80%; inhibition at 25 µM (hT2R71; receptor activated to EC80 with agonist, read-out: inhibition of bitter receptor 71): 20 to 40%; inhibition at 25 µM (hT2R75; HEK293, read-out: inhibition of bitter receptor 75, compound at 25 μM, receptor activated to EC80 with agonist): 20 to 40%; inhibition of bitter receptor 65 (hT2R65; [3]): + (20% to 40% inhibition = +); IC50 (hT2R14 [2]): 2750 nM; inhibition at 25 µM (hT2R61; receptor activated to EC80 with agonist, read-out: inhibition of bitter receptor 61): 40 to 60%; inhibition at 25 µM (hT2R3; receptor activated to EC80 with agonist, read-out: inhibition of bitter receptor 3): 20 to 40%; inhibition at 25 µM (hT2R64; receptor activated to EC80 with agonist, read-out: inhibition of bitter receptor 64): 60 to 80%; inhibition of bitter receptor 55 (hT2R55; [3]): + (20% to 40% inhibition = +)
COc1ccc(CN(Cc2ccccc2)S(=O)(=O)c2ccc(CCC(=O)O)cc2)cc1 [Example 5-59, 3-(4-(N-benzyl-N-(4-methoxybenzyl)sulfamoyl)phenyl)propanoic acid] | + (20% to 40% inhibition = +) | 20 to 40% | 40 to 60% |  |  |  |  |  |  |  |  |  |  |  |  |  | 
CSc1ccc(CN(Cc2ccccc2)S(=O)(=O)c2ccc(C(=O)O)cc2)cc1 [Example 5-78, 4-(N-benzyl-N-(4-(methylthio)benzyl)sulfamoyl)benzoic acid] | +++ (60% to 80% inhibition = +++) | 20 to 40% | > 80% | 20 to 40% | > 80% | + (20% to 40% inhibition = +) | 20 to 40% | 20 to 40% | 40 to 60% | + (20% to 40% inhibition = +) | +++ (60% to 80% inhibition = +++) | + (20% to 40% inhibition = +) | 20 to 40% | 20 to 40% | 40 to 60% | +++ (60% to 80% inhibition = +++) | 
O=C(O)c1ccc(S(=O)(=O)N(Cc2ccccc2)Cc2cccc(F)c2)cc1 [Example 5-79, 4-(N-benzyl-N-(3-fluorobenzyl)sulfamoyl)benzoic acid] | ++++ (80% or greater inhibition = ++++) |  | > 80% | > 80% | > 80% | ++ (40% to 60% inhibition = ++) | 20 to 40% | 20 to 40% | 60 to 80% | + (20% to 40% inhibition = +) | ++ (40% to 60% inhibition = ++) | + (20% to 40% inhibition = +) | 20 to 40% | 40 to 60% | 60 to 80% | +++ (60% to 80% inhibition = +++) | 
